Test results as given in patent US10610125B2, “Methods and compositions for cell-proliferation-related disorders” (Agios Pharmaceuticals, Inc., priority 2009, dated 2020).
Where “and” joins values, the source holds several entries; their conditions need not be identical. Equal entries are not always repeated. Where two headings read alike, the source gives them in different places.

Experiments:
Type in all cases: biochemical
[1] = molecular target: ICDH1 R132H (Homo sapiens (Human), UniProt O75874, R132H); test: IDH1 R132H inhibition assay (NADPH/aKG, resazurin to resorufin fluorescence); conditions: for IC50 Ratio (40/4): ratio of IC50 at 40 uM to 4 uM NADPH; for IC50: IDH1 R132H
Chain of ICDH1 R132H (O75874 whole entry R132H): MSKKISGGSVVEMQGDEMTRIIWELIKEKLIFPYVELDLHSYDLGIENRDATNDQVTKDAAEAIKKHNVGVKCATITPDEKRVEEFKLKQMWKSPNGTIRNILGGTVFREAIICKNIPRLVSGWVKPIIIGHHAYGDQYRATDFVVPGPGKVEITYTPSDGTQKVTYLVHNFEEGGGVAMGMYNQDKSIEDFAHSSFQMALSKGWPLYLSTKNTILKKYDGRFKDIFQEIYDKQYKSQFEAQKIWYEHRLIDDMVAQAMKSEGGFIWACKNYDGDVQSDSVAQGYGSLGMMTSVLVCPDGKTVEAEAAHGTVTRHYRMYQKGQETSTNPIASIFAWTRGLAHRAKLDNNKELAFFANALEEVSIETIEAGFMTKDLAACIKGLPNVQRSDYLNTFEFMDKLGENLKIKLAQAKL
Procedure: Assays were conducted in a volume of 76 ul assay buffer (150 mM NaCl, 10 mM MgCl2, 20 mM Tris pH 7.5, 0.03% bovine serum albumin) as follows in a standard 384-well plate: To 25 ul of substrate mix ([…], 2 mM aKG), 1 ul of test compound was added in DMSO. […] The reaction was incubated for 50 minutes at room temperature, then 25 ul of detection mix (30 uM resazurin, […]) was added and the mixture further incubated for 5 minutes at room temperature. The conversion of resazurin to resorufin was detected by fluorescent spectroscopy at Ex544 Em590 c/o 590.
(§1) The selectivity between wild type vs mutant could be >20-fold.

[2] = molecular target: T1, IDH1 wt (Homo sapiens (Human), UniProt O75874); test: IDH1 wt assay for inhibitor selectivity (1×Km of NADPH); conditions: 1x Km NADPH; for IC50: read-out: IDH1wt IC50 @ 1x Km
T1 sequence (O75874 whole entry): as the sequence (O75874 whole entry R132H) above, with H132R counted along it
Excerpt: as §1

[3] = molecular target: IDH1 wild-type (Homo sapiens (Human), UniProt O75874); test: Oxidative decarboxylation of isocitrate to α-KG by IDH1 wild-type (340 nm); conditions: added in a titration series
Chain of IDH1 wild-type (O75874 whole entry): as the sequence (O75874 whole entry R132H) above, with H132R counted along it
Procedure: In these reactions, the substrate was varied while the cofactor was held constant at 500 uM. All reactions were performed in 150 mM NaCl, 20 mM Tris-Cl, pH 7.5, 10% glycerol, and 0.03% (w/v) BSA). Reaction progress was followed by spectroscopy at 340 nM monitoring the change in oxidation state of the cofactor. Sufficient enzyme was added to give a linear change in absorbance for 10 minutes.
A well-known regulatory mechanism for control of metabolic enzymes is feedback inhibition, in which the product of the reaction acts as a negative regulator for the generating enzyme.

[4] = molecular target: IDH1 R132C (Homo sapiens (Human), UniProt O75874, R132C); test: IDH1/2 activity assay, forward reaction (isocitrate, NADP+), stopped-flow, IDH1 R132C; conditions: Oxidative (→ NADPH), read-out: KM,MgCl2
Chain of IDH1 R132C (O75874 whole entry R132C): as the sequence (O75874 whole entry R132H) above, with H132C counted along it
Procedure: Enzymatic binding constants were determined using curve fitting algorithms to standard kinetic models with the Sigmaplot software package (Systat Software, San Jose, Calif.). For determination of kcat, enzyme was incubated with 5×Km of substrate and cofactor; consumption of NADPH or NADP was determined by a change in the OD340 over time. In both cases an extinction coefficient of 6200 M^−1 cm^−1 was used for NADPH.

[5] = molecular target: IDH1 R132S (Homo sapiens (Human), UniProt O75874, R132S); test: Reduction of alpha-ketoglutarate with NADH by IDH1 R132S; conditions: NADH 0.5 mM, alpha-Ketoglutarate 5 mM, R132S 30 ug/ml
Chain of IDH1 R132S (O75874 whole entry R132S): as the sequence (O75874 whole entry R132H) above, with H132S counted along it
Procedure: (§2) In order to evaluate the ability of the mutant enzymes to utilize NADH in the reduction of alpha-ketoglutarate, the following experiment was conducted.

[6] = molecular target: T1, IDH1 wt; test: Reduction of alpha-ketoglutarate with NADH by IDH1 wild type; conditions: IDH1 wt 5 ug/ml, NADH 0.5 mM
Procedure: as §2

[7] = molecular target: IDH1 R132H (Homo sapiens (Human), UniProt O75874, R132H); test: Reduction of alpha-ketoglutarate with NADH by IDH1 R132H; conditions: R132H 60 ug/ml, NADH 0.5 mM
Chain of IDH1 R132H (O75874 whole entry R132H): as the sequence (O75874 whole entry R132H) above
Procedure: as §2

[8] = read-out: ICDH IC50 (uM) @ 4 uM (10x Km) NADPH, 4 uM (10x Km) NADPH
[9] = read-out: ICDH IC50 (uM) @ 40 uM NADPH, 40 uM (100x Km) NADPH

Row | IC50 Ratio (40/4) [1] | IC50 [1, 8] [µM] | IC50 [1, 9] [µM] | IC50 [2] [µM] | Compound | also measured
1 | 1.15 | 12.8 | 14.7 | 19.2 | O=C1NC(=S)S/C1=C\c1cccc(OC(=O)c2cccc(F)c2)c1 | –
2 | 1.28 | 15 | 19.2 | 46.8 | Cc1cc(C(=O)O)ccc1-c1ccc(/C=C2/NC(=O)N(Cc3ccc(Br)cc3)C2=O)o1 | –
3 | 1.39 | 23.8 | 33.2 | 69.3 | O=C1NC(=S)S/C1=C/c1cccc(OCc2ccc([N+](=O)[O-])cc2)c1 | –

Further lines, the compound ahead of its results:

Row | Compound | IC50 Ratio (40/4) [1] | IC50 [1, 8] [µM] | IC50 [1, 9] [µM] | IC50 [2] [µM] | also measured
4 | Cc1c(/C=C2\Sc3ccccc3C2=O)c(O)n2c(nc3ccccc32)c1C#N | 17.42 | 5.74 | > 100 | 16.2 | –
5 | Cc1ccc(C2=NN(c3ccccc3)C(c3cn(CCC(=O)O)nc3-c3ccccc3)C2)cc1 (stereo not shown) | 3.38 | 12.3 | 41.4 | – | IDH1wt IC50 @ 1x Km (uM) [2]: NO inhibition
6 | O=C(O)CC[C@@H](O)C(=O)O [(R)-2-hydroxyglutarate] | – | – | – | – | effect on oxidative decarboxylation of isocitrate by wild-type ICDH1 [3]: did not show any effect
7 | [Cl-].[Cl-].[Mg+2] [MgCl2] | – | – | – | – | Km [4]: 450 µM
8 | NC(=O)C1=CN([C@@H]2O[C@H](COP(=O)(O)OP(=O)(O)OC[C@H]3O[C@@H](n4cnc5c(N)ncnc54)[C@H](O)[C@@H]3O)[C@@H](O)[C@H]2O)C=CC1 [NADH] | – | – | – | – | Consumption of NADH, Mean [5]: 0.709 Umol/min/mg; Consumption of NADH, individual runs [5]: 0.7183 Umol/min/mg and 0.6997 Umol/min/mg; Rate, consumption of NADH, Mean [5]: 0.001103 ΔA/sec; Rate, consumption of NADH, individual runs [5]: 0.001117 ΔA/sec and 0.001088 ΔA/sec; consumption of NADH in the presence of alpha-ketoglutarate [6]: no measurable consumption; consumption of NADH in the presence of alpha-ketoglutarate [7]: no measurable consumption
